We go through one compound from patent US12624031B2, “Inhibitors of ubiquitin specific peptidase 22 (USP22) and uses thereof for treating diseases and disorders” (Northwestern University, priority 2022, dated 2026).

For orientation: IC50 means the concentration that inhibits the measured activity by half.

The target of data set [1] is human GST-USP22 with Sgf11, Sgf73 1-105 and Sus1 (Homo sapiens, UniProt Q9UPT9). As to the kind of experiment: in vitro USP22 deubiquitination assay (re-constructed deubiquitination module). It is filed as biochemical. The settings on record: customized deubiquitination assay, human GST-USP22 with Sgf11, Sgf73 1-105, Sus1; read-out: IC50 in suppressing USP22 in vitro catalytic activity. How it is done: (A) The chemical structure of S02-S106 11-((4-cyanophenyl)amino)-7,8,9,10-tetrahydrobenzo(4,5)imidazole[1,2-b]isoquinoline-6-carbonitrile, (B & C) The efficacy of USP22i-S02 analogs in inhibiting USP22 catalytic activity was determined in vitro. The representative data from a triplicate analysis of S02-S106 with S02 as a control are shown (B). The IC50 of USP22i-S02 analogs in suppressing USP22 in vitro catalytic activity are shown (C). NA, not available.
We purchased human recombinant Sgf11 and Sgf73 1-105 and Sus1 proteins from R&D Systems Inc, and re-constructed the deubiquitination activity with our human GST-USP22. The USP22 customized deubiquitination was optimized and used for in vitro screening the activity of synthetic USP22i-s02 analogs with the USP22i-s02 as a control (FIG. 12).

Data set [2] has as its system FoxP3 expression in CD4+ natural T-regulatory cells. As to the kind of experiment: FoxP3 expression in natural T-regulatory cells by flow cytometry. The class given is cell-based, murine. The settings on record: concentration of 1-2 ug. The method, then: FIGS. 3 and 4: Change in FoxP3 expression in murine CD4+ natural T-regulatory cells. Murine lymphocytes were isolated from the spleens and lymph nodes and cultured with varying concentrations of inhibitor (0.25 μg/mL to 2 μg/mL) or DMSO, anti-CD3, anti-CD28, TGFβ, and IL-2. After two days, lymphocytes were analyzed by flow cytometry for FoxP3 expression in natural T-regulatory (nTregs) gated on CD3+CD4+CD25+FoxP3+. (FIG. 3) Representative histograms of FITC::FoxP3 MFI in nTregs cultured with inhibitors at a concentration of 2 μg/mL. (FIG. 4) Representative plot of FITC::FoxP3 geometric MFI in nTregs across different concentrations of inhibitor.
We then analyzed whether treatment of Tregs with the compounds S106, 107 and 110 inhibits USP22 activity in Tregs as measured by FoxP3 expression levels by flow cytometry.
For orientation: Flow cytometry measures light scatter and fluorescence of single cells or particles in a stream.

Another data set relates to Foxp3 in iTreg cells. In words: in vitro dose response study in WT and Usp22-null iTreg cells. It is filed as cell-based, murine. The method, then: FIG. 6: Usp22i-S02 halts Usp22-mediated Foxp3 deubiqutination. A, Graphical representation of Foxp3 MFI change in WT versus 22KO iTreg cells treated with various doses of Usp22i-S02 (n=3). B, Representative histogram of Foxp3 MFI level in iTreg cells as Usp22 inhibitor concentration increases from 0-20 μg/mL. C, Cell survival of iTreg cells treated with various doses of Usp22i-S02 (n=3). D, FOXP3 and USP22 protein level in WT and 22KO mice treated with 10 μg/mL Usp22i-S02. E-F, Graphical and representative data of Foxp3 MFI of human Treg cells treated with various doses of Usp22i-S02 (n=3). G, Graphical representation of Foxp3 MFI in WT, Usp21-null, and Usp22-null Treg cells treated with Usp22i-S02 at 10 μg/mL (n=3). H, FOXP3 and USP22 protein degradation of cycloheximide (10 μg/mL) treated iTreg cells with or without the addition of 10 μg/mL of Usp22i-S02. I-J, Endogenous DUB assay IP in iTreg cells of USP22 with FOXP3 under increasing concentrations of Usp22i-S02. K, Foxp3 mRNA level in iTreg cells as Usp22 inhibitor concentration increases from 0-20 μg/mL (n=3). L, FOXP3 and USP22 level in WT iTreg cells with or without 20 μg/mL Usp22 inhibitor treated with 20 μM MG132. M, Graphical representation of the percentage of decrease of Foxp3 MFI in either WT or Usp22-null nTreg cells placed in low glucose conditions with or without the addition of 10 μg/mL of Usp22i-S02 (n=7-8). N, Graphical representation of the percentage of decrease of Foxp3 MFI in WT nTreg cells placed in hypoxic or low amino acid conditions with or without the addition of 10 μg/mL of Usp22i-S02 (n=3-5). G, Two-tailed unpaired t-test comparing within groups was performed to determine statistical significance. K, One-way ANOVA with Dunnet's multiple comparisons between rows relative to control was performed to determine statistical significance. M-N, Two-way ANOVA with Sidak's multiple comparisons between rows was performed to determine statistical significance. All data are presented as mean±stdev. NS, not significant. *P<0.05, **P<0.01, ***P<0.001, ****P<0.0001.
After initial screening, we ran an in vitro dose response study on compound S02, dubbed Usp22i-S02, in both WT and Usp22-null iTreg cells (FIG. 6A-C).

human GST-USP22 with Sgf11, Sgf73 1-105 and Sus1, sequence (Q9UPT9 whole entry): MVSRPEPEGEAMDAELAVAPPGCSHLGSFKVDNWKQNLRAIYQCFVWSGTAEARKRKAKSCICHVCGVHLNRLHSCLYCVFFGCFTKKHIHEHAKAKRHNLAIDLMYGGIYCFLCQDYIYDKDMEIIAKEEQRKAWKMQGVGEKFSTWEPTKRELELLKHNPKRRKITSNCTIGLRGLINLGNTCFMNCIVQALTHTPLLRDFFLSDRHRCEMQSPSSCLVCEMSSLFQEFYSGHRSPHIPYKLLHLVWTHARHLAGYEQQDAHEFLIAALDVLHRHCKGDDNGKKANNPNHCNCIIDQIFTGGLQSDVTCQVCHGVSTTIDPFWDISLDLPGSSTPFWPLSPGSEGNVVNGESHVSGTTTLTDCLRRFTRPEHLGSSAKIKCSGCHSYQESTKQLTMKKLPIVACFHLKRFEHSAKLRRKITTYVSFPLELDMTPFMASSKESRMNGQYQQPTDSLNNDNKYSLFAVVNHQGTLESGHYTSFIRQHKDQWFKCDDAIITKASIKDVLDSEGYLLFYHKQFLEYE
human GST-USP22 with Sgf11, Sgf73 1-105 and Sus1, sequence (Q14CW9 whole entry partner): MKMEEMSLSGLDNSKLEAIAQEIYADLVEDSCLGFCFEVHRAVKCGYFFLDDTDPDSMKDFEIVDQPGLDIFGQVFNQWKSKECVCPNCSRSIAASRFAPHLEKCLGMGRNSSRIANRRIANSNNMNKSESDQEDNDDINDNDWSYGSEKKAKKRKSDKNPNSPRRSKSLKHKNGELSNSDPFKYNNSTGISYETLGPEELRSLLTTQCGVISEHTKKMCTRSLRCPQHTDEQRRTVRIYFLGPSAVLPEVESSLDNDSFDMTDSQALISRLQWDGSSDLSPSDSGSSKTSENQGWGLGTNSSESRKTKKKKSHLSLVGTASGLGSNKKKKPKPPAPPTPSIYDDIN
human GST-USP22 with Sgf11, Sgf73 1-105 and Sus1, sequence (O15265 1-105 partner limits assumed): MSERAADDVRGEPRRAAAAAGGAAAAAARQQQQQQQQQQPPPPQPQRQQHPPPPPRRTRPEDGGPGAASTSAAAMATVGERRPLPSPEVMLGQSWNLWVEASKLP
human GST-USP22 with Sgf11, Sgf73 1-105 and Sus1, sequence (Q9NPA8 whole entry partner): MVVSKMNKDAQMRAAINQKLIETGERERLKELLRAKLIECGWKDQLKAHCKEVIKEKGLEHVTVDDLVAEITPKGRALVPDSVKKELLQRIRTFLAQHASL

Regarding `N#Cc1c2c(c(Nc3ccccc3)n3c1nc1ccccc13)CCCC2` [USP22i-S02, 11-anilino-7,8,9,10-tetrahydrobenzimidazo[1,2-b]isoquinoline-6-carbonitrile], in data set [1], the IC50 was approximately 4.7 µM. In data set [2], the “FoxP3 expression levels in Tregs” value is “did not reduce the levels of FoxP3”. Moreover, in the data set on Foxp3 in iTreg cells (10 μg/mL), the “viability of iTreg cells” value is “little effect on viability”. In addition, the “FOXP3 degradation with MG132” value in the data set on Foxp3 in iTreg cells (20 μg/mL inhibitor, 20 μM MG132) is on record as “halted by MG132 protease inhibition”. The “FOXP3 degradation in cycloheximide treated iTreg cells” value in the data set with Foxp3 in iTreg cells (CHX 10 μg/mL, 10 μg/mL inhibitor) was “enhanced FOXP3 degradation”. The “effect on iTreg cells lacking Usp21” value in the data set with Foxp3 in iTreg cells (Usp21-null, 10 μg/mL) is listed as “full effect”. Besides, the “FOXP3 levels in murine Treg cells lacking Usp22” value in the data set on Foxp3 in iTreg cells (Usp22-null, in vivo and in vitro) is given as “minimal effect on FOXP3 levels”. Also, the “Foxp3 under glucose starvation in Treg cells lacking Usp22” value in the data set with Foxp3 in iTreg cells (Usp22-null, low glucose, 10 μg/mL) was “no effect on Foxp3”. Besides, in the data set with Foxp3 in iTreg cells (WT Treg cells, low glucose, 10 μg/mL), the “Foxp3 stability under glucose starvation” value is “significantly diminished Foxp3 stability”. Besides, the “Foxp3 MFI and protein level” value with Foxp3 in iTreg cells (WT iTreg cells, 10 μg/mL) was “decreases in Foxp3 MFI and protein level comparable to Usp22-null iTreg cells”. Further, in the data set with Foxp3 in iTreg cells (WT nTreg cells, 10 μg/mL), the “Foxp3 stability under hypoxic and amino acid starvation conditions” value is “reduces Foxp3 stability”. Besides, in the data set with Foxp3 in iTreg cells (iTreg cells, 0-20 μg/mL), the Foxp3 transcription result is “decreased Foxp3 transcription”. Also, in the data set with Foxp3 in iTreg cells (iTreg cells, endogenous DUB assay IP), the FOXP3 ubiquitination entry is listed as “increased FOXP3 ubiquitination”.
